Target: T1, CRTH2 (Homo sapiens, UniProt Q9Y5Y4)
T1 sequence (Q9Y5Y4 1-395): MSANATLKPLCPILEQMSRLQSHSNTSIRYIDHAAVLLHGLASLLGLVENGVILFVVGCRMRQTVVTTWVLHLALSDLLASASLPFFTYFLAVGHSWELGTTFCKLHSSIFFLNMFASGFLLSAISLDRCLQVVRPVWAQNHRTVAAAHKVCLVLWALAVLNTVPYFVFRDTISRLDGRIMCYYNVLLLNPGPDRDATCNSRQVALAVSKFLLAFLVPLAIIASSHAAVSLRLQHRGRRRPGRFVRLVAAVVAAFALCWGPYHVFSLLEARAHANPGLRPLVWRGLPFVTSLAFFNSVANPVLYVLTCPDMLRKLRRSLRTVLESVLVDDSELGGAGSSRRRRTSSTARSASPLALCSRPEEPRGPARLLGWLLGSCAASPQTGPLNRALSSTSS
Test: Determination of Ki (radioligand binding assay, equilibrium competition against [3H]PGD2)
Set-up: expressed in transfected cells; host or cells: HEK293 (EBNA) cells, membrane preparation
Settings: average of at least three independent dose response experiments
Protocol: The inhibitory activity can be investigated by a radioligand binding assay (Sawyer et al., Br. J. Pharmocol 2002, 137, 1163-72). The radioligand binding assay was performed at room temperature in binding buffer (10 mM HEPES/KOH pH […], with protease inhibitor cocktail tablets), containing 1.5 nM [^3H]PGD2 (Amersham, 156 Cie/mmol), and 10 μg of hCRTH2 HEK293 (EBNA) cell membrane protein in a final volume of 100 μl in 96 well plates (Corning, USA). Non-specific binding was determined in the presence of 1 μM PGD2 (Cayman, USA). Competing spiro-indolinones were diluted in dimethylsulphoxide so that the total volume of dimethylsulfoxide was kept constant at 1% dimethylsulphoxide (Me2SO) Serial dilutions of 100 μM and […] were prepared. 10 μl each of these spiro-indolinone stock solutions were added. Incubation (60 min at room temperature) was terminated by rapid filtration through 96 wells hydrophobic GF/C Unifilter plates (Whatman, USA). Filters were washed twice with 250 μl of Tris-HCl pH 7.4, 10 mM MnCl2, and residual radioligand bound to the filters was mixed to 100 μl of liquid scintillation cocktail (Optiphase Supermix, Perkin Elmer, USA) and binding activity was determined by counting residual radioligand using a 1450 Micro-beta scintillation counter (Wallac, UK). The following representative compounds were tested. All inhibited the binding of PGD2 to CRTH2 by more than 70%. • (1′-benzyl-5-chloro-2,2′,5′-trioxospiro[indole-3,3′-pyrrolidin]-1(2H)-yl)acetic acid • (1′-benzyl-5-fluoro-2,2′,5′-trioxospiro[indole-3,3′-pyrrolidin]-1(2H)-yl)acetic acid • 4-(1′-allyl-5-chloro-2,2′,5′-trioxospiro[indole-3,3′-pyrrolidin]-1(2H)-yl)butanoic acid • [5-chloro-1′-(2-methoxyethyl)-2,2′,5′-trioxospiro[indole-3,3′-pyrrolidin]-1(2H)-yl]acetic acid • 4-(1′-benzyl-5-chloro-2,2′,5′-trioxospiro[indole-3,3′-pyrrolidin]-1(2H)-yl)butanoic acid • (1′-benzyl-5-methoxy-2,2′,5′-trioxospiro[indole-3,3′-pyrrolidin]-1(2H)-yl)acetic acid • [5-fluoro-1′-[(2-methoxyethoxy)methyl]-2,2′,5′-trioxospiro[indole-3,3′-pyrrolidin]-1(2H)-yl]acetic acid • 4-(1′-allyl-5-fluoro-2,2′,5′-trioxospiro[indole-3,3′-pyrrolidin]-1(2H)-yl)butanoic acid • 4-(1′-benzyl-5-fluoro-2,2′,5′-trioxospiro[indole-3,3′-pyrrolidin]-1(2H)-yl)butanoic acid
Ki values were determined by equilibrium competition binding experiments against [^3H]PGD2. Ki values were calculated from the formula below and represent the average of at least three independent dose response experiments. The Ki values give the ligand concentrations necessary to inhibit 50% of the binding of [^3H]PGD2 to CRTH2. Ki=IC50/(1+[Concentration of Ligand]/Kd)]
All experiments were performed in 96 well plates, in a final volume of 100 μl according to the above described filtration assay. The concentration of membranes and 3 [H]PGD2, as well as the positive and negative controls were identical to the conditions described above.

Ki	SMILES
39 nM	Cc1nc(CN2C(=O)CC3(C2=O)C(=O)N(CC(=O)O)c2ccc(Cl)cc23)cs1 (stereo not shown) [Compound 1, [5-chloro-1′-[(2-methyl-1,3-thiazol-4-yl)methyl]-2,2′,5′-trioxospiro[indole-3,3′-pyrrolidin]-1(2H)-yl]acetic acid]
93 nM	O=C(O)CN1C(=O)C2(CC(=O)N(Cc3ccc4ccccc4n3)C2=O)c2cc(Cl)ccc21 (stereo not shown) [Compound 3, [5-chloro-2,2′,5′-trioxo-1′-(quinolin-2-ylmethyl)spiro[indole-3,3′-pyrrolidin]-1(2H)-yl]acetic acid]
89 nM	N#Cc1ccc(CN2C(=O)CC3(C2=O)C(=O)N(CC(=O)O)c2ccc(Cl)cc23)cc1 (stereo not shown) [Compound 4, [5-chloro-1′-(4-cyanobenzyl)-2,2′,5′-trioxospiro[indole-3,3′-pyrrolidin]-1(2H)-yl]acetic acid]
73 nM	O=C(O)CN1C(=O)C2(CC(=O)N(Cc3cccc(Cl)c3)C2=O)c2cc(Cl)ccc21 (stereo not shown) [Compound 5, [5-chloro-1′-(3-chlorobenzyl)-2,2′,5′-trioxospiro[indole-3,3′-pyrrolidin]-1(2H)-yl]acetic acid]
100 nM	O=C(O)CN1C(=O)C2(CC(=O)N(Cc3ccc(Cl)c(Cl)c3)C2=O)c2cc(Cl)ccc21 (stereo not shown) [Compound 6, [5-chloro-1′-(3,4-dichlorobenzyl)-2,2′,5′-trioxospiro[indole-3,3′-pyrrolidin]-1(2H)-yl]acetic acid]
148 nM	O=C(O)CN1C(=O)C2(CC(=O)N(Cc3cccc(Oc4ccccc4)c3)C2=O)c2cc(Cl)ccc21 (stereo not shown) [Compound 10, [5-chloro-2,2′,5′-trioxo-1′-(3-phenoxybenzyl)spiro[indole-3,3′-pyrrolidin]-1(2H)-yl]acetic acid]
213 nM	O=C(O)CN1C(=O)C2(CC(=O)N(CC3COc4ccccc4O3)C2=O)c2cc(Cl)ccc21 (stereo not shown) [Compound 16, [5-chloro-1′-(2,3-dihydro-1,4-benzodioxin-2-ylmethyl)-2,2′,5′-trioxospiro[indole-3,3′-pyrrolidin]-1(2H)-yl]acetic acid]
170 nM	O=C(O)CN1C(=O)C2(CC(=O)N(Cc3ccccn3)C2=O)c2cc(Cl)ccc21 (stereo not shown) [Compound 17, [5-chloro-2,2′,5′-trioxo-1′-(pyridin-2-ylmethyl)spiro[indole-3,3′-pyrrolidin]-1(2H)-yl]acetic acid]
270 nM	O=C(O)CN1C(=O)C2(CC(=O)N(Cc3ccc(C(F)(F)F)o3)C2=O)c2cc(Cl)ccc21 (stereo not shown) [Compound 18, [5-chloro-2,2′,5′-trioxo-1′-{[5-(trifluoromethyl)-2-furyl]methyl}spiro[indole-3,3′-pyrrolidin]-1(2H)-yl]acetic acid]
267 nM	O=C(O)CN1C(=O)C2(CC(=O)N(CCc3ccccc3)C2=O)c2cc(Cl)ccc21 (stereo not shown) [Compound 23, [5-chloro-2,2′,5′-trioxo-1′-(2-phenylethyl)spiro[indole-3,3′-pyrrolidin]-1(2H)-yl]acetic acid]
705 nM	O=C(O)CN1C(=O)C2(CC(=O)N(Cc3cn4ccccc4n3)C2=O)c2cc(Cl)ccc21 (stereo not shown) [Compound 24, [5-chloro-1′-(imidazo[1,2-a]pyridin-2-ylmethyl)-2,2′,5′-trioxospiro[indole-3,3′-pyrrolidin]-1(2H)-yl]acetic acid]
768 nM	O=C(O)CN1C(=O)C2(CC(=O)N(C/C=C/c3ccccc3)C2=O)c2cc(Cl)ccc21 (stereo not shown) [Compound 25, [5-chloro-2,2′,5′-trioxo-1′-[(2E)-3-phenylprop-2-en-1-yl]spiro[indole-3,3′-pyrrolidin]-1(2H)-yl]acetic acid]
1030 nM	CCOCCN1C(=O)CC2(C1=O)C(=O)N(CC(=O)O)c1ccc(Cl)cc12 (stereo not shown) [Compound 28, [5-chloro-1′-(2-ethoxyethyl)-2,2′,5′-trioxospiro[indole-3,3′-pyrrolidin]-1(2H)-yl]acetic acid]
1130 nM	O=C(O)CN1C(=O)C2(CC(=O)N(CCOCc3ccccc3)C2=O)c2cc(Cl)ccc21 (stereo not shown) [Compound 29, [1′-[2-(benzyloxy)ethyl]-5-chloro-2,2′,5′-trioxospiro[indole-3,3′-pyrrolidin]-1(2H)-yl]acetic acid]
1820 nM	Cn1ccnc1CN1C(=O)CC2(C1=O)C(=O)N(CC(=O)O)c1ccc(Cl)cc12 (stereo not shown) [Compound 32, [5-chloro-1′-[(1-methyl-1H-imidazol-2-yl)methyl]-2,2′,5′-trioxospiro[indole-3,3′-pyrrolidin]-1(2H)-yl]acetic acid]
681 nM	O=C(O)CCCN1C(=O)C2(CC(=O)N(Cc3ccc(C(F)(F)F)cc3)C2=O)c2cc(Cl)ccc21 (stereo not shown) [Compound 35, 4-[5-chloro-2,2′,5′-trioxo-1′-[4-(trifluoromethyl)benzyl]spiro[indole-3,3′-pyrrolidin]-1(2H)-yl]butanoic acid]
153 nM	COc1ccccc1CN1C(=O)CC2(C1=O)C(=O)N(CC(=O)O)c1ccc(Cl)cc12 (stereo not shown) [Compound 54, [5-chloro-1′-(2-methoxybenzyl)-2,2′,5′-trioxospiro[indole-3,3′-pyrrolidin]-1(2H)-yl]acetic acid]
510 nM	COc1c(C)cnc(CN2C(=O)CC3(C2=O)C(=O)N(CC(=O)O)c2ccc(Cl)cc23)c1C (stereo not shown) [Compound 75, [5-chloro-1′-[(4-methoxy-3,5-dimethylpyridin-2-yl)methyl]-2,2′,5′-trioxospiro[indole-3,3′-pyrrolidin]-1(2H)-yl]acetic acid]
12 nM	O=C(O)CN1C(=O)C2(CC(=O)N(Cc3cnc(Cl)cc3Cl)C2=O)c2cc(Cl)ccc21 (stereo not shown) [Compound 76, [5-chloro-1′-[(4,6-dichloropyridin-3-yl)methyl]-2,2′,5′-trioxospiro[indole-3,3′-pyrrolidin]-1(2H)-yl]acetic acid]
75 nM	O=C(O)CN1C(=O)C2(CC(=O)N(Cc3cccs3)C2=O)c2cc(Cl)ccc21 (stereo not shown) [Compound 77, [5-chloro-2,2′,5′-trioxo-1′-(2-thienylmethyl)spiro[indole-3,3′-pyrrolidin]-1(2H)-yl]acetic acid]
101 nM	COc1ccnc(CN2C(=O)CC3(C2=O)C(=O)N(CC(=O)O)c2ccc(Cl)cc23)c1OC (stereo not shown) [Compound 78, [5-chloro-1′-[(3,4-dimethoxypyridin-2-yl)methyl]-2,2′,5′-trioxospiro[indole-3,3′-pyrrolidin]-1(2H)-yl]acetic acid]
6 nM	O=C(O)CN1C(=O)C2(CC(=O)N(Cc3csc(-c4cccc(Cl)c4)n3)C2=O)c2cc(Cl)ccc21 (stereo not shown) [Compound 103, [5-chloro-1′-{[2-(3-chlorophenyl)-1,3-thiazol-4-yl]methyl}-2,2′,5′-trioxospiro[indole-3,3′-pyrrolidin]-1(2H)-yl]acetic acid]
24 nM	O=C(O)CN1C(=O)C2(CC(=O)N(Cc3ccccc3F)C2=O)c2cc(Cl)ccc21 (stereo not shown) [Compound 104, [5-chloro-1′-(2-fluorobenzyl)-2,2′,5′-trioxospiro[indole-3,3′-pyrrolidin]-1(2H)-yl]acetic acid]
1120 nM	Cc1onc(-c2ccccc2)c1CN1C(=O)NC2(C1=O)C(=O)N(CC(=O)O)c1ccc(Cl)cc12 (stereo not shown) [Compound 106, [5′-chloro-1-[(5-methyl-3-phenylisoxazol-4-yl)methyl]-2,2′,5-trioxospiro[imidazolidine-4,3′-indol]-1′(2′H)-yl]acetic acid]
300 nM	O=C(O)CN1C(=O)C2(NC(=O)N(Cc3ccccc3)C2=O)c2cc(Cl)ccc21 (stereo not shown) [Compound 107, (1-benzyl-5′-chloro-2,2′,5-trioxospiro[imidazolidine-4,3′-indol]-1′(2′H)-yl)acetic acid]
